Source: US20100092427A1, “Pyridinone Diketo Acids: Inhibitors of HIV Replication in Combination Therapy” (THE UNIVERSITY OF GEORGIA RESEARCH FOUNDATION, priority 2006, published 2010)
Read-outs that look alike come from different tables or passages of the source.

Tests used:
HIVNL4-3 = experiment: anti-HIV data in PBMC for the clinical isolate HIVNL4-3; format: cell-based
PBMC = experiment: cytotoxicity (CC95) in PBMC, same anti-HIV study
physchem = details: buffer, pH 7.4
in vitro = details: human, pooled liver microsomes

| Structure (SMILES) | EC95 (HIVNL4-3; AZT in the same study) | CC95 (PBMC) | half-life (physchem) | half-life (in vitro) | EC95 (HIVNL4-3) |
| --- | --- | --- | --- | --- | --- |
| Cc1cn([C@H]2C[C@H](N=[N+]=[N-])[C@@H](CO)O2)c(=O)[nH]c1=O [AZT, Zidovudine, reference compound] | 9.42 nM | > 1000 nM |  |  |  |
| O=C(O)/C(O)=C/C(=O)c1cc(Cc2ccccc2)cn(Cc2ccccc2)c1=O [Compound 8] |  | > 200000 nM | > 41 h | > 6 h | 610 nM |
